ChEMBL document CHEMBL1201862, “PubChem BioAssay data set” (2004)
Active and inactive are the calls of the source. For most assays here, no stated cut-off is given here; in the data, actives have a measured EC50 and inactives only a lower limit.

Experiments:
[1] = target: ATP-dependent molecular chaperone HSP82 (Candida albicans (strain WO-1) (Yeast), UniProt C4YTQ8); experiment: loss of DOC-induced GRE-beta-galactosidase reporter signal, dose response, Hsp90 inhibitor project, S. cerevisiae, luminescence (AID 2400); assay type: functional, cell-based;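 further: beta-galactosidase luminescence from glucocorticoid response element reporter as proxy for Hsp90 function; inhibitor potency where signal loss means Hsp90 inhibition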
ATP-dependent molecular chaperone HSP82, sequence (C4YTQ8 whole entry): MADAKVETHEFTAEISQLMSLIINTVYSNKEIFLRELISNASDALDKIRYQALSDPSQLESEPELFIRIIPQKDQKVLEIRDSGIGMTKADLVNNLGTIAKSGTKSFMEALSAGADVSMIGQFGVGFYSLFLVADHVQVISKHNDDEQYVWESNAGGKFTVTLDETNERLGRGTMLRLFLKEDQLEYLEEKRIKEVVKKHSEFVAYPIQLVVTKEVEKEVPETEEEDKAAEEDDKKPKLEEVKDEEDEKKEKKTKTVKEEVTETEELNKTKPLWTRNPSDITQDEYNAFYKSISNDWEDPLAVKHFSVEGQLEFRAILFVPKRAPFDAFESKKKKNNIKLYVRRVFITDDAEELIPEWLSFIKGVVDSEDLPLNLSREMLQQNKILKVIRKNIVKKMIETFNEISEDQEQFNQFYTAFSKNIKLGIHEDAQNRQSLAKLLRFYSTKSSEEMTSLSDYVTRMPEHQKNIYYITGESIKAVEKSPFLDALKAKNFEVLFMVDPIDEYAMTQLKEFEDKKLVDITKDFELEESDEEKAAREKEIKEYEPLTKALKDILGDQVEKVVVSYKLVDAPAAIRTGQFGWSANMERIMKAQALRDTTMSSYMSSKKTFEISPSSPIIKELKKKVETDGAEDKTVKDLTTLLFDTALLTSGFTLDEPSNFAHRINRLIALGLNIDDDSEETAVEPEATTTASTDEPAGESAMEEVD

[2] = cytotoxicity in HEK-293T cells, dose response, cytotoxicity control for TCR NF-kB inhibitor project, luminescence, T-cell screen hits (AID 489026); assay type: functional, cell-based;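 further: cells exposed to compound about 14 hours before the viability readout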
[3] = Shn3 3'UTR reporter inhibitors, dose response, cell-based, Clone20 osteoblasts, firefly luciferase, cherry-picked (AID 624132); assay type: functional;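 further: firefly luciferase luminescence from reporter carrying the Shn3 3'UTR in osteoblasts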
BJ = experiment: cytotoxicity toward BJ-TERT-LT-ST fibroblasts, dose response, cell-based, RAS-independent, luminescence (AID 1935); assay type: functional; conditions: Homo sapiens;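 further: BJ fibroblasts immortalized with TERT plus LT and ST oncogenes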
[4] = inhibitors of intracellular T. cruzi replication, confirmation, NIH3T3 host cells, beta-gal luminescence (AID 2044); assay type: functional, cell-based;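 further: intracellular parasites grown in NIH/3T3 mouse fibroblasts as host cells; luminescent beta-galactosidase reporter signal from transgenic T. cruzi replicating inside host cells; inhibitors lower the luminescence signal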
[5] = test system: Streptococcus sp. 'group A'; experiment: growth inhibition of control SK(-) GAS strain, dose response, counter-screen for streptokinase expression inhibitor project, luminescence, kanamycin, BacTiterGlo, confirmation (AID 1900); assay type: functional, organism-based
[6] = target: T1, COUP transcription factor 2 (Homo sapiens, UniProt P24468); experiment: Luminescence-based cell-based high throughput dose response assay to identify inhibitors of COUP-TFII (NR2F2).; assay type: functional;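 further: HEK293 cells transiently cotransfected with COUP-TFII expression vector and reporter; luciferase reporter luminescence driven by COUP-TFII from the pX2-168 reporter plasmid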
T1 sequence (P24468 whole entry): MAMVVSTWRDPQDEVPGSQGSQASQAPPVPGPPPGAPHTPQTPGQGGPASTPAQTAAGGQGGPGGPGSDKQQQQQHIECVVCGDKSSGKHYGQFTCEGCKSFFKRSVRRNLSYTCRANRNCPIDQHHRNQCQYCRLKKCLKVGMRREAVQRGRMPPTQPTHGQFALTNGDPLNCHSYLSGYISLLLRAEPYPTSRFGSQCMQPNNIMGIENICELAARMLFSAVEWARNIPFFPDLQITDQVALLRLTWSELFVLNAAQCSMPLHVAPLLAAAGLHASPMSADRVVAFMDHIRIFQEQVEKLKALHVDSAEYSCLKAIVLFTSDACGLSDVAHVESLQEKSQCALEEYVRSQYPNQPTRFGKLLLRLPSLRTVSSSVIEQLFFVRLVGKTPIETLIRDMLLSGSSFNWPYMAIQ

Streptococcus = experiment: Group A Streptococcus viability loss, dose response, counter-screen for streptokinase expression inhibitor project, luminescence, BacTiterGlo (AID 1915); assay type: functional, organism-based;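 further: potency for reduction of bacterial viability or growth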

Structure (SMILES): CCCCC(=O)NC(c1ccc(N(CC)CC)cc1)c1ccc2cccnc2c1O (stereo not drawn)
- EC50 [1]: > 150000 nM (inactive)
- IC50 [2]: > 80000 nM (inactive)
- AC50 [3]: 1120 nM (active)
- EC50 (BJ): 1790 nM (active)
- EC50 [4]: < 100 nM (active)

Structure (SMILES): CCOc1cccc(/C=N/NC(=S)Nc2ccccc2[N+](=O)[O-])c1O
- EC50 [5]: 267 nM (active)
- IC50 [6]: 5050 nM (active)
- EC50 (Streptococcus): 4180 nM (active)
